Assay results as given in the CombiSolv-Exp solvation set (Vermeire and Green 2021).

Test: solvent given as SMILES

CC(C)=O
Settings	solvation free energy, 298 K [kcal/mol]
in Brc1cccc2ccccc12	-3.32
in C1CCOC1	-3.89
in C1COCCO1	-3.87
in CC#N	-4.32
in CC(=O)N(C)C	-3.95
in CC(=O)OCc1ccccc1	-3.69
in CC(C)CC(C)(C)C	-2.44
in CC(C)CCCC(C)CCCC(C)CCCCC(C)CCCC(C)CCCC(C)C	-2.37
in CC(C)O	-3.36
in CC=O	-4.07
in CCC(C)=O	-3.98
in CCCCCC	-2.68
in CCCCCCC	-2.57
in CCCCCCCC	-2.53
in CCCCCCCCC=CCCCCCCCC(=O)OCC(COC(=O)CCCCCCCC=CCCCCCCCC)OC(=O)CCCCCCCC=CCCCCCCCC	-3.07
in CCCCCCCCCC	-2.46
in CCCCCCCCCCCCCCCC	-2.3
in CCCCCCCCO	-3.14
in CCCCCO	-3.4
in CCCCCl	-3.62
in CCCCN(C=O)CCCC	-3.55
in CCCCO	-3.51
in CCCCOCCCC	-3.04
in CCN1CCCC1=O	-3.77
in CCN(CC)C(C)=O	-3.82
in CCNC(C)=O	-3.56
in CCNC=O	-3.72
in CCO	-3.78
in CCOC(=O)c1ccccc1C(=O)OCC	-3.53
in CCOC(C)=O	-3.9
in CCOCC	-3.51
in CCOP(=O)(OCC)OCC	-3.64
in CI	-3.91
in CN1CCCC1=O	-3.94
in CN1CCCCC1=O	-3.82
in CN1CCN(C)C1=O	-3.61
in CN(C)C=O	-4.02
in CNC(C)=O	-3.67
in CNC=O	-3.82
in CO	-4.05
in COC(C)=O	-4.02
in COP(=O)(OC)OC	-3.97
in CS(C)=O	-3.67
in Cc1ccc(C)cc1	-3.39
in Cc1cccc(C)c1	-3.4
in Cc1ccccc1C	-3.36
in ClC(Cl)(Cl)Cl	-3.25
in ClC(Cl)Cl	-4.67
in ClCCCl	-4.27
in ClCCl	-4.62
in Clc1ccccc1	-3.63
in N#CCCOCCC#N	-3.86
in NC=O	-3.77
in O	-3.84
in O=C1CCCCC1	-3.8
in O=CN1CCOCC1	-3.66
in OCCOCCO	-3.32
in S=C=S	-3.39
in [2H]O[2H]	-3.82
in c1ccc2ncccc2c1	-3.62
in c1ccccc1	-3.79

CCCCl
Settings	solvation free energy, 298 K [kcal/mol]
in Brc1cccc2ccccc12	-3.29
in C1CCOC1	-3.88
in C1CCOCC1	-3.79
in C=CCCCCCCCCCCCCCC	-3.01
in CC(=O)OCc1ccccc1	-3.4
in CC(C)CC(C)(C)C	-3.2
in CCC(C)=O	-3.68
in CCCCCC	-3.37
in CCCCCCC	-3.27
in CCCCCCCC	-3.22
in CCCCCCCCC=CCCCCCCCC(=O)OCC(COC(=O)CCCCCCCC=CCCCCCCCC)OC(=O)CCCCCCCC=CCCCCCCCC	-3.25
in CCCCCCCCCCCCCCCC	-3.01
in CCCCCCCCO	-3.06
in CCCCCl	-3.68
in CCCCO	-3.16
in CCOC(C)=O	-3.68
in Cc1ccc(C)cc1	-3.58
in ClC(Cl)(Cl)Cl	-3.7
in ClC(Cl)Cl	-3.62
in ClCCCl	-3.7
in O	-0.37
in O=C1CCCCC1	-3.67
in [2H]O[2H]	-0.74
in c1ccc2ncccc2c1	-3.35

Cc1ccc(C)c2ccccc12
Settings	solvation free energy, 298 K [kcal/mol]
in O	-2.82

c1cc2cccc3c4cccc5cccc(c(c1)c23)c54
Settings	solvation free energy, 298 K [kcal/mol]
in CCCCCCCCC=CCCCCCCCC(=O)OCC(COC(=O)CCCCCCCC=CCCCCCCCC)OC(=O)CCCCCCCC=CCCCCCCCC	-16.9
in O	-7.83

ClC1=C(Cl)C2(Cl)C3C(Cl)C=CC3C1(Cl)C2(Cl)Cl (stereo not given)
Settings	solvation free energy, 298 K [kcal/mol]
in CCCCCCCCC=CCCCCCCCC(=O)OCC(COC(=O)CCCCCCCC=CCCCCCCCC)OC(=O)CCCCCCCC=CCCCCCCCC	-13.5
in CCCCCCCCO	-10.6
in O	-2.55

CC(C)SC(C)C
Settings	solvation free energy, 298 K [kcal/mol]
in O	-1.21

CCOCCOC
Settings	solvation free energy, 298 K [kcal/mol]
in ClC(Cl)(Cl)Cl	-5.85

CC(=O)C1COCCOCCOCCOCCOc2ccccc2O1 (stereo not given)
Settings	solvation free energy, 298 K [kcal/mol]
in Cc1cccc(C)c1	-19.2
in O	-17.8

Clc1cc2c(cc1Cl)Oc1cc(Cl)c(Cl)cc1O2
Settings	solvation free energy, 298 K [kcal/mol]
in O	-3.37

C=CC(C)CCCC(C)CCCC(C)CCCC(C)C (stereo not given)
Settings	solvation free energy, 298 K [kcal/mol]
in O	3.75

CSc1ccccc1
Settings	solvation free energy, 298 K [kcal/mol]
in O	-2.73

CN(CC(F)(F)F)c1ccccc1
Settings	solvation free energy, 298 K [kcal/mol]
in O	-1.92

Clc1cccc2c1Oc1ccccc1O2
Settings	solvation free energy, 298 K [kcal/mol]
in O	-3.52
